US10000498B2, “Selective proton coupled folate transporter and folate receptor, and GARFTase inhibitor compounds and methods of using the same” (Duquesne University of the Holy Spirit, priority 2008, dated 2018)
pIC50: −log10 of the molar value.

Tests used:
hRFC = molecular target: T1, hRFC (Homo sapiens, UniProt P41440); test: Inhibition of [3H]MTX uptake by RFC in PC43 cells; type: cell-based; details: pH 7.2-7.4; not shown
T1 construct: expressed in transfected cells; host or cells: PC43-10 (CHO subline derived from RFC- and FR-null R2 cells)
T1 sequence (P41440 1-591): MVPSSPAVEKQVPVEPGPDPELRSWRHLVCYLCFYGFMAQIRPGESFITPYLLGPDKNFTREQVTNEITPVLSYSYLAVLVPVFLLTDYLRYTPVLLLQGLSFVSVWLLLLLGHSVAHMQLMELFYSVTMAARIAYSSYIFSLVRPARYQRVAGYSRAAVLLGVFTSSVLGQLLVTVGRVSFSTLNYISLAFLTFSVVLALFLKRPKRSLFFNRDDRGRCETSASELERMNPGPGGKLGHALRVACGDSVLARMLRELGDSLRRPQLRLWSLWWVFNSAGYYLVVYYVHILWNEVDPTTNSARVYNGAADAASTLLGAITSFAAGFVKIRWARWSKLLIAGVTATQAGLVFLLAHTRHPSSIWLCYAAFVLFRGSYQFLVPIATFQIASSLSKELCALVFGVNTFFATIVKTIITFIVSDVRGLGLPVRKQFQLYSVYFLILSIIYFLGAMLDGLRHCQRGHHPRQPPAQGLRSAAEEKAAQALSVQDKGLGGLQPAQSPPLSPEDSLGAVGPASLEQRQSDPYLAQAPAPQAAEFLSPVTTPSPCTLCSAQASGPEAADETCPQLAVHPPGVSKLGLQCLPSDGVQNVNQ

[1] = molecular target: T2, purified recombinant mouse GARFTase (Mus musculus, UniProt Q64737); test: In vitro GARFTase inhibition assay; type: biochemical
T2 sequence (Q64737 2-1010 limits assumed): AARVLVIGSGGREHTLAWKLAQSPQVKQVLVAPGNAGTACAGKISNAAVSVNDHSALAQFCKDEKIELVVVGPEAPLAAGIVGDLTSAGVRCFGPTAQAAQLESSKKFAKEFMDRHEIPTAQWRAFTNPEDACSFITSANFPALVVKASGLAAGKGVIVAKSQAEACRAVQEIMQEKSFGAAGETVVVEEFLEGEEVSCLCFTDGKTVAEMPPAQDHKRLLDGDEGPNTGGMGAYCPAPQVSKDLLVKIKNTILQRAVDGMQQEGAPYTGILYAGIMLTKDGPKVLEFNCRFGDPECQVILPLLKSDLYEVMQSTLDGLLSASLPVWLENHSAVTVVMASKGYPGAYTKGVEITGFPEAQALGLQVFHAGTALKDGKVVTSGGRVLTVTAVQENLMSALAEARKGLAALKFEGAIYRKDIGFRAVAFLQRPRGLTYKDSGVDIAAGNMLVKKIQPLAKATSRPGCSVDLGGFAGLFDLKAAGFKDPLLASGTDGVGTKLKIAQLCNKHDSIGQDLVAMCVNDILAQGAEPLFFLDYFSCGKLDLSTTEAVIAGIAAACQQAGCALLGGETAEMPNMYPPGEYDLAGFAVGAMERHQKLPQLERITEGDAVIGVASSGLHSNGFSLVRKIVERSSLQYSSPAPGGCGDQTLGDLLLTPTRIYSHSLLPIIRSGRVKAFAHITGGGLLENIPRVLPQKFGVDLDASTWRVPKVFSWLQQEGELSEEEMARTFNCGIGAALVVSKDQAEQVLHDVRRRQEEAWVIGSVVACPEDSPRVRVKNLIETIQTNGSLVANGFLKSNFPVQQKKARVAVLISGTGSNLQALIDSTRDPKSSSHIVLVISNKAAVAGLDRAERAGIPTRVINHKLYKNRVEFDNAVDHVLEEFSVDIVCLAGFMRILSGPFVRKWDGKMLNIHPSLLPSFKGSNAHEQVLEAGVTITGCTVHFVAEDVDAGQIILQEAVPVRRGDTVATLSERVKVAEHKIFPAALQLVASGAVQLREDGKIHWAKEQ

## Nc1nc2[nH]c(CCCCc3ccc(C(=O)N[C@@H](CCC(=O)O)C(=O)O)s3)cc2c(=O)[nH]1 [AAG154353, (S)-2-({5-[4-(2-amino-4-oxo-4,7-dihydro-3H-pyrrolo[2,3-d]pyrimidin-6-yl)-butyl]thiophene-2-carbonyl}-amino)-pentanedioic acid]
hRFC
  Inhibition of [3H]MTX transport from hRFC in pC43-10 cells (in words): negligible inhibition
[1]
  pIC50: 7.22
